Data as given in patent publication US10287311B2, “Modified fluorinated nucleoside analogues” (priority 2003, dated 2019).
Like-named read-outs stand apart in the source and are kept apart here.

Columns and labels:
[1] = Cytotoxicity (CPE, Neutral Red) in KB cells of the antiviral tests; details: human
RSV = test: Antiviral activity, RSV; type: cell-based; details: human respiratory syncytial virus
SARSCoV = test: organism not typed; type: cell-based; details: Vero
[2] = tested on: Human bone marrow cells, BFU-E; test: Bone marrow toxicity assay, BFU-E; type: cell-based; details: Bone marrow cell
Procedure: The culture assays for CFU-GM and BFU-E are performed using a bilayer soft agar or methylcellulose method. Drugs are diluted in tissue culture medium and filtered. After 14 to 18 days at 37° C. in a humidified atmosphere of 5% CO2 in air, colonies of greater than 50 cells are counted using an inverted microscope. The results are presented as the percent inhibition of colony formation in the presence of drug compared to solvent control cultures.

Dengue Type 2 = test: Antiviral activity, Dengue Type 2 in Vero cells; type: cell-based, Dengue virus; details: for EC50: Dengue Type 2, Vero
HIV = test: microbe, parasite or virus in culture; type: cell-based
in vitro [3] = details: human
[4] = Cytotoxicity assay (MTS), MDBK; type: cell-based; details: bovine, MDBK cells
[5] = Pharmacokinetics in Rhesus monkeys; type: in vivo; details: single oral dose 33.3 mg/kg, Mean ± SD, preliminary
Procedure: FIG. 3 depicts the pharmacokinetics of β-D-(2′R)-2′-deoxy-2′-fluoro-2′-C-methylcytidine in Rhesus monkeys given a single dose (33.3 mg/kg) oral or intravenous dose of β-D-(2′R)-2′-deoxy-2′-fluoro-2′-C-methylcytidine.

HBV = test: Antiviral activity, HBV; type: cell-based
[6] = Cytotoxicity assay (MTS), all cell lines tested; type: cell-based; details: human, bovine, African green monkey, Clone A, Huh7, HepG2, MDBK, PBM, CEM, Vero and MRC-5 cells; summary in text over all cell lines
Procedure: (§1) 50 μl of 2× drug dilutions were added per well in a 96 well plate. Final concentrations of drug ranged from 1 to 100 μM. A “no drug” (media only) control was used to determine the minimum absorbance values and a “cells+media only” control was used for maximum absorbance value. A solvent control was also used. Cells were then added (PBM: 5×10^4 cells/well; CEM: 2.5×10^3 cells/well; Vero, HepG2, Huh-7, and Clone A: 5×10^3 cells/well) and incubated at 37° C. in a humidified 5% CO2 atmosphere for 3-5 days (PBM: 5 days; CEM: 3 days, all others: 4 days). After incubation, 20 μl of MTS dye was added from Cell Titer Aqueous One Solution Cell Proliferation Assay to each well and the plate was re-incubated for 2-4 hours. The absorbance (490 nm) was then read on an ELISA plate reader using the media only/no cell wells as blanks. Percent inhibition was found and used to calculate the CC50.
In contrast is the relative toxicity of 2′-C-methyladenosine.

BVDV = test: (BVDV) yield reduction assay; type: cell-based, bovine viral diarrhea virus; details: for EC90: Bovine viral diarrhea virus isolates and strains
Procedure: Madin-Darby Bovine Kidney (MDBK) cells were grown in Dulbecco's modified eagle medium supplemented with 10% horse serum and 100 μg/ml penicillin-streptomycin. Cells were seeded in a 96-well plate at 5×10^3 cells/well and incubated for 72h at 37° C. in a humidified 5% CO2 atmosphere. Cells were infected with either cytopathic (NADL strain) or noncytopathic (SD-1 strain) BVDV at a virus dilution of 10-2 and incubated for 45 min. Cell monolayers were washed three times with medium. Fresh medium-containing test compounds in dose response concentrations or ribavirin, as a positive control, were added to cultures and medium containing no drug was added to the no-drug controls. After 72h incubation, supernatant was collected and viral RNA was extracted using the QIAmp Viral RNA Mini Kit (Qiagen, CA). Viral load was determined by Q-RT-PCR using primers specific for either NADL or SD-1 (1).

Rhinovirus Type 2 = test: Antiviral activity, Rhinovirus Type 2 in KB cells; type: cell-based; details: for EC50: Enterovirus, Rhinovirus Type 2, KB
Influenza B = test: microbe, parasite or virus in culture; type: cell-based; details: MDCK
[7] = Cytotoxicity assay (MTS), Vero; type: cell-based; details: African green monkey, Vero cells
Procedure: as §1

[8] = Cytotoxicity assay (MTS), CloneA; type: cell-based; details: human, Clone A cells
Procedure: as §1

in vitro [9] = details: African green monkey
West Nile virus = test: Antiviral activity, West Nile virus in Vero cells; type: cell-based; details: for EC50: West Nile virus, West Nile, Vero
[10] = Cytotoxicity assay (MTS), CEM; type: cell-based; details: human, CEM cells
Procedure: as §1

[11] = Neutral Red, read-out: EC50, NR

## C[C@@]1(F)[C@H](O)[C@@H](CO)O[C@H]1n1ccc(N)nc1=O
[1]
  CC50: > 100 µM
RSV
  EC90: > 100 µM
SARSCoV; read-out: EC50, CPE
  EC50: > 100 µM
SARSCoV; read-out: EC50, NR
  EC50: > 100 µM
[2]
  IC50: 98.2 µM
Dengue Type 2
  activity against Dengue virus (in words): shows activity
Dengue Type 2; read-out: EC50, CPE
  EC50: 55 µM
Dengue Type 2; Dengue virus, Vero, Neutral Red, read-out: EC50, NR
  EC50: > 100 µM
Dengue Type 2; Dengue virus, Vero, read-out: EC50, CPE
  EC50: 32 µM
Female Swiss mice; female Swiss mice, intraperitoneal, days 0 to 5, 0, 3.3, 10, 33, 100 mg/kg
  deaths during the 30-day study: no mice died
Female Swiss mice; mouse, in vivo
  toxicity observed in the mice: No significant toxicity
HIV
  activity on HIV (in words): lack of activity
HIV; Human immunodeficiency virus 1, HIV
  EC90: > 100 µM
In vitro [3]
  CC50: > 100 µM
[4]
  CC50 at 4 days: > 100 µM
[5]; rhesus monkey, in vivo
  AUC(0-t): 44.2 ± 22.2 µM·h
[5]; rhesus monkey, in vivo, read-out: T ½ (converted)
  half-life: 3.9 ± 0.1 h
[5]
  Bioavailability: 21 ± 11 F %
  Cmax: 9.6 ± 2.7 µM
  Tmax: 2 ± 1 h
HBV
  activity on HBV (in words): lack of activity
HBV; Hepatitis B virus, HBV
  EC90: > 10 µM
[6]
  CC50: 75 to 100 µM
BVDV
  activity on HCV surrogate model BVDV (in words): lack of activity
BVDV; BVDVcp
  EC90: > 100 µM
BVDV; BVDVncp
  EC90: > 22 µM
Rhinovirus Type 2
  activity against Rhinovirus (in words): shows activity
Rhinovirus Type 2; [11]
  EC50: 20 µM
Rhinovirus Type 2; read-out: EC50, CPE
  EC50: 25 µM
Influenza B; [11]
  EC50: > 100 µM
Influenza B; read-out: EC50, CPE
  EC50: > 100 µM
[7]
  CC50 at 4 days: > 100 µM
[8]
  CC50 at 4 days: > 100 µM
In vitro [9]
  CC50: > 100 µM
West Nile virus
  activity against West Nile virus (in words): shows activity
West Nile virus; NR = Neutral Red, read-out: EC50, NR
  EC50: 12 µM
West Nile virus; read-out: EC50, CPE
  EC50: 32 µM
[10]
  CC50 at 3 days: > 100 µM
